Tests used:
mouse = settings: cited from earlier work
ALDH = test: Formation of acetic acid from AcA by ALDH/NADH in the presence of D-GLAC (Reaction 6), gas chromatography; format: biochemical; settings: 3 mmol D-GLAC, 0.3 mmol AcA, 5 units ALDH, NADH, phosphate buffer pH 6.865, stirred 6 hours; GC analysis
[1] = Effect of D-glyceric acid on blood alcohol level in rats after intraperitoneal alcohol; format: in vivo, rat; settings: on average, both fasted and nonfasted rats; versus same alcohol dose without D-GLAC
Protocol: 40 animals were fasted for 12 hours before the experiment, and 40 were fed normally. In the experiment, each rat received intraperitoneally an intoxicating single dose of alcohol (1.2 g/kg, 10% w/v) in physiological saline. […] The blood samples were then analysed by headspace gas chromatography.

[2] = large doses (1-5 g/kg) taken together with the alcohol (Crownover et al. 1986); cited from earlier work
[3] = oral administration during alcohol drinking (Tabakoff et al. 1989); cited from earlier work

## CC=O [AcA, acetaldehyde]
mouse; acute toxicity
  LD100: 750 mg/kg

## O=C(O)C(O)CO [D-GLAC, D-glyceric acid]
ALDH
  Formation of acetic acid from AcA: acetic acid had been formed
[1]
  Lower blood alcohol concentration than the corresponding control group: 20%

## CCO [alcohol, ethyl alcohol]
mouse; in vivo
  LD70: 6500 mg/kg

## O=C(CO)[C@@H](O)[C@H](O)[C@H](O)CO [fructose]
[2]
  Enhancement of alcohol elimination rate: up to 20%

## CSCC[C@H](N)C(=O)O [methionine]
[3]
  Reduction in blood AcA concentrations: 20%

— patent US7666909B2, “Enhancement of alcohol metabolism” (priority 2005, dated 2010)
